Measured values published in ChEMBL document CHEMBL5696442, “Discovery of type II inhibitors of TGFβ-activated kinase 1 (TAK1) and mitogen-activated protein kinase kinase kinase kinase 2 (MAP4K2)” (J Med Chem, 2015).
The source made the active and inactive calls. The calls are words filed in the database; no cut-off is given here.

How the values were obtained:
[1] = biological target: Mitogen-activated protein kinase 7 (Homo sapiens) (UniProt Q13164); experiment: Inhibition of Erk5 K2 labeling site in human Huh-7 cells at 1 uM by KiNativ Profiling analysis relative to control; format: cell-based
[2] = biological target: Cyclin-dependent kinase 11B (Homo sapiens) (UniProt P21127); experiment: Inhibition of CDK11 (unknown origin) at 10 uM by Ambit Kinomescan binding assay relative to control; values are per cent of control
[3] = biological target: MAP kinase-activated protein kinase 2 (Homo sapiens) (UniProt P49137); experiment: Inhibition of MAPKAPK2 (unknown origin) at 10 uM by Ambit Kinomescan binding assay
[4] = biological target: SRSF protein kinase 2 (Homo sapiens) (UniProt P78362); experiment: Inhibition of SRPK2 (unknown origin) at 10 uM by Ambit Kinomescan binding assay
[5] = Inhibition of KHS1 Lys1 labeling site in human A-375 cells at 0.5 uM by KiNativ Profiling analysis relative to control; details: condition cancer
[6] = biological target: Cyclin-dependent kinase 2 (Homo sapiens) (UniProt P24941); experiment: Inhibition of CDK2 Lys1 labeling site in human A-375 cells at 0.5 uM by KiNativ Profiling analysis relative to control; format: cell-based
[7] = biological target: MAP kinase-interacting serine/threonine-protein kinase 2 (Homo sapiens) (UniProt Q9HBH9); experiment: Inhibition of MKNK2 (unknown origin) at 1 uM by Ambit Kinomescan binding assay relative to control; values are per cent of control
[8] = biological target: Serine/threonine-protein kinase Nek6 (Homo sapiens) (UniProt Q9HC98); experiment: Inhibition of NEK6 (unknown origin) at 1 uM by Ambit Kinomescan binding assay relative to control; values are per cent of control
[9] = biological target: Cyclin-dependent kinase 5 (Homo sapiens) (UniProt Q00535); experiment: Inhibition of CDK5 Lys1 labeling site in human A-375 cells at 0.5 uM by KiNativ Profiling analysis relative to control; format: cell-based
[10] = test system: Tyrosine-protein kinase ABL1 (Homo sapiens), P00519 [M351T]; experiment: Inhibition of phosphorylated ABL1 M351T mutant (unknown origin) at 1 uM by Ambit Kinomescan binding assay relative to control; values are per cent of control
[11] = biological target: Protein-tyrosine kinase 6 (Homo sapiens) (UniProt Q13882); experiment: Inhibition of BRK (unknown origin) at 1 uM by Ambit Kinomescan binding assay relative to control; values are per cent of control
[12] = biological target: Mitogen-activated protein kinase kinase kinase 4 (Homo sapiens) (UniProt Q9Y6R4); experiment: Inhibition of MAP3K4 Lys1 labeling site in human Huh-7 cell lysate at 1 uM by KiNativ Profiling analysis relative to control; format: subcellular
[13] = biological target: T1, Eukaryotic translation initiation factor 2-alpha kinase 3 (Homo sapiens) (UniProt Q9NZJ5); experiment: Inhibition of PEK Lys2 labeling site in human Huh-7 cell lysate at 1 uM by KiNativ Profiling analysis relative to control; format: subcellular
T1 sequence (whole entry): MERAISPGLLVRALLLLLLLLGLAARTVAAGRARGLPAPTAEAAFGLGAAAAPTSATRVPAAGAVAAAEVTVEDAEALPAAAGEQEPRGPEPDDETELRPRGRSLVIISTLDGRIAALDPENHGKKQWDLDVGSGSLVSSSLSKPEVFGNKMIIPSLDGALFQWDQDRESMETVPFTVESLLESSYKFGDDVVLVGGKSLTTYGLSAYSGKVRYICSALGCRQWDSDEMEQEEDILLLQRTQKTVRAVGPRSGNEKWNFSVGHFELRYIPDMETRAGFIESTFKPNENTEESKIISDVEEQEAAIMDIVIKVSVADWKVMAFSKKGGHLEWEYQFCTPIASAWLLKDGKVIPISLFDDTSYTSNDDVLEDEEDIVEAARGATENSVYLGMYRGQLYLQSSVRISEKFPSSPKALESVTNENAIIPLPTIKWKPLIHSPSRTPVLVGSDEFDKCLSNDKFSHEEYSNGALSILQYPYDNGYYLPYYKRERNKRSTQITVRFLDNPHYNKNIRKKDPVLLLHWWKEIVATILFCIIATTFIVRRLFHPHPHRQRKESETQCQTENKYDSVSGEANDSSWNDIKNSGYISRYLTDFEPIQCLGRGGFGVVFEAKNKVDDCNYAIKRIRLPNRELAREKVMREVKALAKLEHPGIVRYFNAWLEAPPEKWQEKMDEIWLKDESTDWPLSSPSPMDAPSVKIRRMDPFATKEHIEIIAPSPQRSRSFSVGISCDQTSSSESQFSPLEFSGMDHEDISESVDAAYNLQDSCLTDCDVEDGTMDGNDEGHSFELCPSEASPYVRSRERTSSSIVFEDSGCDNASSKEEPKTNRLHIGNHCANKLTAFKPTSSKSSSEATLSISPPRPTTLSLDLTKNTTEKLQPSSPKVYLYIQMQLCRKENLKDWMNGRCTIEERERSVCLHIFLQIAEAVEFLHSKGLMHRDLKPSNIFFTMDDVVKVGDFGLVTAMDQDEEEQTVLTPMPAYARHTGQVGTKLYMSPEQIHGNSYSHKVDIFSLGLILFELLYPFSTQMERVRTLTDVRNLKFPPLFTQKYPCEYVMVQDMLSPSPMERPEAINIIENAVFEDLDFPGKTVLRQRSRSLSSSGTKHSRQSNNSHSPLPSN

[14] = biological target: Calcium/calmodulin-dependent protein kinase type II subunit gamma (Homo sapiens) (UniProt Q13555); experiment: Inhibition of CaMK2g Lys1 labeling site harbouring KTSTQEYAAKIINTK in human Huh-7 cell lysate at 1 uM by KiNativ Profiling analysis relative to control; format: subcellular
Calcium/calmodulin-dependent protein kinase type II subunit gamma (Homo sapiens), sequence (Q13555 whole entry): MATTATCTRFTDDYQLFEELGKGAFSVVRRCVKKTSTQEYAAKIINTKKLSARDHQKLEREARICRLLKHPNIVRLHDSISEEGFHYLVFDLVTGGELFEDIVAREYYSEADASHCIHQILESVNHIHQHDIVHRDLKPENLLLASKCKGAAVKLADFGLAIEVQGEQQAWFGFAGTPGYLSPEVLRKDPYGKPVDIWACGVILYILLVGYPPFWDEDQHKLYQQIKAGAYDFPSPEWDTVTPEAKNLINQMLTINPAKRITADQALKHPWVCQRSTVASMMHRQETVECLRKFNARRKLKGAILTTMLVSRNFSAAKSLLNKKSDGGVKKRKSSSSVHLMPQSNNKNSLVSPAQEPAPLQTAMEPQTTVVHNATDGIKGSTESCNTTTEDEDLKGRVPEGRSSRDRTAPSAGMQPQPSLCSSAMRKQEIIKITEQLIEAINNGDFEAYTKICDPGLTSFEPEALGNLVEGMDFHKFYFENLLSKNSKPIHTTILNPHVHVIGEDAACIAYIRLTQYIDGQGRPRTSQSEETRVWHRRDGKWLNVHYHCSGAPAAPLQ

Serine/threonine-protein kinase Nek6 (Homo sapiens), sequence (Q9HC98 whole entry): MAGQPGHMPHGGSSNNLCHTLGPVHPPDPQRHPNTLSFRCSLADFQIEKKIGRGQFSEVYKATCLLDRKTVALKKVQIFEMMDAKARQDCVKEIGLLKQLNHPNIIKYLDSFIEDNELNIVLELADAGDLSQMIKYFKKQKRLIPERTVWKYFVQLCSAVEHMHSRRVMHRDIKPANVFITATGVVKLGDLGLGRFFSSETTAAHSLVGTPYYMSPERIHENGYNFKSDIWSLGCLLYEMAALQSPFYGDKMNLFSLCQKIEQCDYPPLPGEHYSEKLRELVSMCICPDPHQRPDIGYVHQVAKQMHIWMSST
Protein-tyrosine kinase 6 (Homo sapiens), sequence (Q13882 whole entry, looked up): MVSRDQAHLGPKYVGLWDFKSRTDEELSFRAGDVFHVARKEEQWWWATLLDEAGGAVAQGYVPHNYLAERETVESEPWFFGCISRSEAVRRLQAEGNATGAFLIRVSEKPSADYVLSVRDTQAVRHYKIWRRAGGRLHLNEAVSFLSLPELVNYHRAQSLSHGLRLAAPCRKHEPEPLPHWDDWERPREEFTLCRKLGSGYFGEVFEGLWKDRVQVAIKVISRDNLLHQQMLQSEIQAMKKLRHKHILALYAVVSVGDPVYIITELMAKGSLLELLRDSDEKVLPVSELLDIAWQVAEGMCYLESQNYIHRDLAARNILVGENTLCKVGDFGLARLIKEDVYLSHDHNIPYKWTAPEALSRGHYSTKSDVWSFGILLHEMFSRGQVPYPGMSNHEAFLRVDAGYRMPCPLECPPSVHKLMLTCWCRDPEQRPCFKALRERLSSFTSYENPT
Mitogen-activated protein kinase kinase kinase 4 (Homo sapiens), sequence (Q9Y6R4 whole entry): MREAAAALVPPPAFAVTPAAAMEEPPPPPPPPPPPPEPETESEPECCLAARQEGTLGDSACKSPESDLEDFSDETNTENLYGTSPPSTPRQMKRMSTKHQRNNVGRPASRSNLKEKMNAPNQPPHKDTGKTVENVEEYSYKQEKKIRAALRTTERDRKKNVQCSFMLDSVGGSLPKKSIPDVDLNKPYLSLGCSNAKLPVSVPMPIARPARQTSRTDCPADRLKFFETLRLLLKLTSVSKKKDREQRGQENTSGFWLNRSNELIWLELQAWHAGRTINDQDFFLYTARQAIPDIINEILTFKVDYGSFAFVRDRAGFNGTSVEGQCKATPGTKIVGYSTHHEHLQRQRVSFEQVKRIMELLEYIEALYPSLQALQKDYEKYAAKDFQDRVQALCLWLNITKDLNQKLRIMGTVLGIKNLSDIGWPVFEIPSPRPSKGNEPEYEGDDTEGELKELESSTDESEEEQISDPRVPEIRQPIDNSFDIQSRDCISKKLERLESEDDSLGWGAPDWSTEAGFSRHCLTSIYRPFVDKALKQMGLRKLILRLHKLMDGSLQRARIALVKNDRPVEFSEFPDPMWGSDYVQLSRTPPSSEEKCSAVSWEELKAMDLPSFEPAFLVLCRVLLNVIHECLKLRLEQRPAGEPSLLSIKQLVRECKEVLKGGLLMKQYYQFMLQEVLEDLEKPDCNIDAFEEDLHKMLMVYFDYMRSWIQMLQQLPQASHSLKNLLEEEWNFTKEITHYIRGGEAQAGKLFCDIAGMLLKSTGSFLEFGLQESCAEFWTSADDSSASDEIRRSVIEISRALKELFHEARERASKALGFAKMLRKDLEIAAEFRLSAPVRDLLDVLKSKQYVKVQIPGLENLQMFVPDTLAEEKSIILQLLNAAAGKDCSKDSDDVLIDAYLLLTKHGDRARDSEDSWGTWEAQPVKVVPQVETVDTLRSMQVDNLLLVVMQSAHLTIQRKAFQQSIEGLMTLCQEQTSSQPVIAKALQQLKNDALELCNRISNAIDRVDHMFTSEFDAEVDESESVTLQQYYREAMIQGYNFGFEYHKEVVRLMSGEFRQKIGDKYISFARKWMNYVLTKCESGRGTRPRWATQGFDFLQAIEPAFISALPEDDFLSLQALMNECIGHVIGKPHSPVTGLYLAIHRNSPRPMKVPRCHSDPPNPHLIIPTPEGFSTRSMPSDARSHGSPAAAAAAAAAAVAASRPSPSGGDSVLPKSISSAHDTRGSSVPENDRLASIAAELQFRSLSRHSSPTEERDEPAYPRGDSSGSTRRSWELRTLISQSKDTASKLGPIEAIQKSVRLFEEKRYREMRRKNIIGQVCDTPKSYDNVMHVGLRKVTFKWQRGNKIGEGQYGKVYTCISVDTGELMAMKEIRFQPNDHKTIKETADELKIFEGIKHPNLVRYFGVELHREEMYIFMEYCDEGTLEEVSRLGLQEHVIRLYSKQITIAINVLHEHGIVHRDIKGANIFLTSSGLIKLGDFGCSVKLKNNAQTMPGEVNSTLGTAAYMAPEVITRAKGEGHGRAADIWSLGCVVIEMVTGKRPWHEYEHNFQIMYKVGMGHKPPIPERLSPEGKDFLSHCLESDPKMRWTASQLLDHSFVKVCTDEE
Cyclin-dependent kinase 5 (Homo sapiens), sequence (Q00535 whole entry, looked up): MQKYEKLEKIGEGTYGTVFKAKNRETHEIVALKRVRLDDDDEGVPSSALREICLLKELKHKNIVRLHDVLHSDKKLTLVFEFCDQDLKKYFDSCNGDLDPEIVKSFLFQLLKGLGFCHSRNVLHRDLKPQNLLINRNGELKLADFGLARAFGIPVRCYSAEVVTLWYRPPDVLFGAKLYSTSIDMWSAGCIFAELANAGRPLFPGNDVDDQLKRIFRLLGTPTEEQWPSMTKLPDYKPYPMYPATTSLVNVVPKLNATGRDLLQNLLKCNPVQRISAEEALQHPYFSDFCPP
Mitogen-activated protein kinase 7 (Homo sapiens), sequence (Q13164 2-816 limits assumed): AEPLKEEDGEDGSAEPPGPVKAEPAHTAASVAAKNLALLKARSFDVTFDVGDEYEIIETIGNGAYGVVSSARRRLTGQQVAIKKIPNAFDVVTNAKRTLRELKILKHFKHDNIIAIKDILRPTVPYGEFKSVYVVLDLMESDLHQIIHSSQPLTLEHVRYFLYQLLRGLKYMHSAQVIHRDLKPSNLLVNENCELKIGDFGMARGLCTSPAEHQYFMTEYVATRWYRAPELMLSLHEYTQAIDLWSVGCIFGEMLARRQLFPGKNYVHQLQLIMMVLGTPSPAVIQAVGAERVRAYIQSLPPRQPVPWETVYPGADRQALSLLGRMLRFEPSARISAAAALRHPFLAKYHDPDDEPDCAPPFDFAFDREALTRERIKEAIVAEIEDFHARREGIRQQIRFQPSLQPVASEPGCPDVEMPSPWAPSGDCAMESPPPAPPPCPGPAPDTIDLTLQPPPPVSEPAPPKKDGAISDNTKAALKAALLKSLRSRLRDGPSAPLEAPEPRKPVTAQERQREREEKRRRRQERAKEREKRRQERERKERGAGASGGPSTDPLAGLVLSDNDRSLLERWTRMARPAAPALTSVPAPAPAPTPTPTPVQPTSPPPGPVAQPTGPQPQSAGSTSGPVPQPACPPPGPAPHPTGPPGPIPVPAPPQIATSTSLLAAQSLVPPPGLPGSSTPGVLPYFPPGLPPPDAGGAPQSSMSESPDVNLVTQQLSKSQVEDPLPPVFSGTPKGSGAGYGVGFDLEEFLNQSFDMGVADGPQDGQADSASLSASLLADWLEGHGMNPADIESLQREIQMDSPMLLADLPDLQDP
MAP kinase-activated protein kinase 2 (Homo sapiens), sequence (P49137 whole entry, looked up): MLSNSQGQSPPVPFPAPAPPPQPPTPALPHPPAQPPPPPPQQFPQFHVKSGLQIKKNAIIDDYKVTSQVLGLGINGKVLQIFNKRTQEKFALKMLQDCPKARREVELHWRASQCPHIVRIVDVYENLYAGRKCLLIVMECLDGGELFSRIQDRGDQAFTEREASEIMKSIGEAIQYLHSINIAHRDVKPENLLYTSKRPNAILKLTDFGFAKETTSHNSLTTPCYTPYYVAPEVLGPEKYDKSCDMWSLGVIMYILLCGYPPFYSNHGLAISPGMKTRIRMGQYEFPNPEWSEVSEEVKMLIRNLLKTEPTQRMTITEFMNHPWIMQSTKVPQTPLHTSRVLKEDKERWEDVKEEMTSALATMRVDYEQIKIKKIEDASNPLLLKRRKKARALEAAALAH
MAP kinase-interacting serine/threonine-protein kinase 2 (Homo sapiens), sequence (Q9HBH9 whole entry, looked up): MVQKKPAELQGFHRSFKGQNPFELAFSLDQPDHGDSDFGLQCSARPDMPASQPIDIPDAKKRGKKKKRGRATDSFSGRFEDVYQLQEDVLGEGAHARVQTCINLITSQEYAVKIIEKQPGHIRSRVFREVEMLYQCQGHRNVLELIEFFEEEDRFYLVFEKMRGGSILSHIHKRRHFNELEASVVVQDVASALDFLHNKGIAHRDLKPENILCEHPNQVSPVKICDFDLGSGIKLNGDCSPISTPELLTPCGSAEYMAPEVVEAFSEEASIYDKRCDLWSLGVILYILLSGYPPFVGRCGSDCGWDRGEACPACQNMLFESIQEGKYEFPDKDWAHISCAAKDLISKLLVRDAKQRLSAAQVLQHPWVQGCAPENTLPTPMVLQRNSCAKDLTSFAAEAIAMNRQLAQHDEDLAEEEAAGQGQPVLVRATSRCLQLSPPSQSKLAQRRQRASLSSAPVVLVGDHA

## CCN1CCN(Cc2ccc(NC(=O)c3ccc(C)c(Oc4ccnc5[nH]ccc45)c3)cc2C(F)(F)F)CC1
[1]
  inhibition: 14.6%
[2]
  % of control: 0.1%
[3]
  inhibition: inactive
[4]
  inhibition: inactive

## CCN1CCN(Cc2ccc(NC(=O)c3ccc(C)c(/C=C/c4cnc5[nH]ccc5c4OC)c3)cc2C(F)(F)F)CC1
[5]
  inhibition at 0.5 µM: 53.7%
[6]
  inhibition: 20.7%
[7]
  residual activity: 48%
[8]
  residual activity: 100%
[9]
  inhibition: -4.1%
[10]
  % of control: 4.4%
[11]
  residual activity: 64%

## CNc1cc(Oc2cc(C(=O)Nc3cc(N4CCN(C)CC4)cc(C(F)(F)F)c3)ccc2C)ncn1
[12]
  inhibition: -1.7%
[13]
  inhibition: -6.7%
[14]
  inhibition: 6.9%
